Tested on: PC-3 cells
Experiment: Tumor cell growth inhibition, sulforhodamine B (SRB) staining
Assay type: cell-based
Conditions: PC-3 human prostatic carcinoma cells, 48 hrs, absorbance 540 nm, adriamycin as positive control
Description: PC-3 cells (ATCC, US), human prostatic carcinoma cell line, were cultured in RMPI 1640 supplemented with 10% fetal bovine serum.
Appropriate concentrations of cells (5×10^4 cells/ml) cultured in RMPI 1640 supplemented with 5% fetal bovine serum were poured into 96-well plate and incubated at 37° C. in 5% CO2 condition. The day after the incubation, PC-3 cells were fixed on Time zero (T0) plate by adding 50 μl/well of 50% trichloroacetic acid and the cell concentration was set to zero point by fixing the cells. In the cells treated with test samples, 50% TCA was added to each wells in 50 ul/well after 48 hrs to fix the cells. The final concentration of adding test compounds were 0.01, 0.03, 0.1, 0.3, 1 μg/ml respectively. Then, each fixed plate was washed, dried and 100 μl/well of 0.4% reaction solution containing sulforhodamine B (SRB) reagent dissolved in 0.1% acetic acid was added thereto to stain the cells. 30 minutes later, the cell was washed with 0.1% acetic acid, dried at room temperature, and 10 mM of TRIS base (pH 10.5) was added thereto to dissolve the staining agent. Finally, the absorbance detected at 540 nm was measured and the value was conversed into percentage comparing with that of control group. IC50 (μg/ml), the concentration of the group required to inhibit the cancer cell growth by 50%, was calculated from the data (AA: IC50's<1, A: IC50's<5, B: IC50's<10 and C: IC50's>10). Also, the inhibiting activity of cell growth was expressed as various symbols in accordance with the potency of examples e.g., AA: closely equivalent (1˜2 times), A: slightly weaker (3˜5 times), B: weaker (5˜10 times), C: very weaker (more than 10 times) than that of adriamycin used as a positive control group.

Structure (SMILES)	IC50 [µg/mL]
COc1ccc(CN2CC=C(CCC(=O)NO)C2=O)c(OC)c1 [Example 1, 3-[1-(2,4-Dimethoxybenzyl)-2-oxo-2,5-dihydro-1H-pyrrol-3-yl]-N-hydroxypropionamide]	< 5
O=C(CCC1=CCN(CCc2ccccc2)C1=O)NO [Example 3, N-hydroxy-3-(2-oxo-1-phenethyl-2,5-dihydro-1H-pyrrol-3-yl)-propionamide]	< 1
COc1ccc(CN2CC=C(CCC(=O)NO)C2=O)cc1 [Example 11, N-hydroxy-3-[1-(4-methoxy-benzyl)-2-oxo-2,5-dihydro-1H-pyrrol-3-yl]-propionamide]	< 1
O=C(CCC1=CCN(Cc2ccc(Cl)cc2)C1=O)NO [Example 13, 3-[1-(4-chloro-benzyl)-2-oxo-2,5-dihydro-1H-pyrrol-3-yl]-N-hydroxy-propionamide]	< 5
COc1ccc(CN2CC=C(CCC(=O)O)C2=O)c(OC)c1 [Example 16, 3-[1-(2,4-dimethoxy-benzyl)-2-oxo-2,5-dihydro-1H-pyrrol-3-yl]-propionic acid]	> 10
O=C(CCC1=CCN(Cc2ccc(NC(=O)c3ccccc3)cc2)C1=O)NO [Example 18, N-{4-[3-(2-hydroxycarbamoyl-ethyl)-2-oxo-2,5-dihydro-pyrrole-1-yl-methyl]-phenyl}-benzamide]	< 10
Cc1ccc(S(=O)(=O)Nc2ccc(CN3CC=C(CCC(=O)NO)C3=O)cc2)cc1 [Example 19, N-hydroxy-3-{2-oxo-1-[4-(toluene-4-sulfonylamino)-benzyl]-2,5-dihydro-1H-pyrrol-3-yl}-propionamide]	< 10
O=C(CC1=CCN(CCc2ccccc2)C1=O)NO [Example 22, N-hydroxy-2-(2-oxo-1-phenethyl-2,5-dihydro-1H-pyrrol-3-yl)-acetamide]	> 10
O=C(CC1=CCN(Cc2ccc(OCc3ccccc3)cc2)C1=O)NO [Example 24, 2-[1-(4-benzyloxy-benzyl)-2-oxo-2,5-dihydro-1H-pyrrol-3-yl]-N-hydroxy-acetamide]	> 10
COc1ccc(CN2CCC(CC(=O)NO)C2=O)c(OC)c1 (centres unmarked) [Example 26, 2-[1-(2,4-dimethoxy-benzyl)-2-oxo-pyrrolidin-3-yl]-N-hydroxy-acetamide]	> 10
O=C(CCC1=CCN(CCc2ccccc2F)C1=O)NO [Example 28, 3-{1-[2-(2-fluoro-phenyl)-ethyl]-2-oxo-2,5-dihydro-1H-pyrrol-3-yl}-N-hydroxy-propionamide]	< 5
O=C(CCC1=CCN(CCc2ccc(F)cc2)C1=O)NO [Example 30, 3-{1-[2-(4-fluoro-phenyl)-ethyl]-2-oxo-2,5-dihydro-1H-pyrrol-3-yl}-N-hydroxy-propionamide]	< 5
O=C(CCC1=CCN(CCc2cccc([N+](=O)[O-])c2)C1=O)NO [Example 32, N-hydroxy-3-{1-[2-(3-nitro-phenyl)-ethyl]-2-oxo-2,5-dihydro-1H-pyrrol-3-yl}-propionamide]	< 5
O=C(CCC1=CCN(CCc2ccc(Br)cc2)C1=O)NO [Example 35, 3-{1-[2-(4-bromo-phenyl)-ethyl]-2-oxo-2,5-dihydro-1H-pyrrol-3-yl}-N-hydroxy-propionamide]	< 5
COc1ccccc1CCN1CC=C(CCC(=O)NO)C1=O [Example 36, N-hydroxy-3-{1-[2-(2-methoxy-phenyl)-ethyl]-2-oxo-2,5-dihydro-1H-pyrrol-3-yl}-propionamide]	< 5
COc1cccc(CCN2CC=C(CCC(=O)NO)C2=O)c1 [Example 37, N-hydroxy-3-{1-[2-(3-methoxy-phenyl)-ethyl]-2-oxo-2,5-dihydro-1H-pyrrol-3-yl}-propionamide]	< 5
COc1ccc(CCN2CC=C(CCC(=O)NO)C2=O)cc1 [Example 38, N-hydroxy-3-{1-[2-(4-methoxy-phenyl)-ethyl]-2-oxo-2,5-dihydro-1H-pyrrol-3-yl}-propionamide]	< 5
Cc1ccccc1CCCN1CC=C(CCC(=O)NO)C1=O [Example 41, N-hydroxy-3-[2-oxo-1-(3-o-tolyl-propyl)-2,5-dihydro-1H-pyrrol-3-yl]-propionamide]	< 10
CC(C)c1ccc(CCCN2CC=C(CCC(=O)NO)C2=O)cc1 [Example 43, N-hydroxy-3-{1-[3-(4-isopropyl-phenyl)-propyl]-2-oxo-2,5-dihydro-1H-pyrrol-3-yl]-propionamide]	< 5
O=C(CCC1=CCN(CCCc2ccc(Br)cc2)C1=O)NO [Example 44, 3-{1-[3-(4-bromo-phenyl)-propyl]-2-oxo-2,5-dihydro-1H-pyrrol-3-yl]-N-hydroxy-propionamide]	< 10

Second part, the molecule after the results:

IC50 [µg/mL]	Structure (SMILES)
< 10	Cc1ccccc1CN1CC=C(CCC(=O)NO)C1=O [Example 6, N-hydroxy-3-[1-(2-methyl-benzyl)-2-oxo-2,5-dihydro-1H-pyrrol-3-yl]-propionamide]
< 5	Cc1cccc(CN2CC=C(CCC(=O)NO)C2=O)c1 [Example 7, N-hydroxy-3-[1-(3-methyl-benzyl)-2-oxo-2,5-dihydro-1H-pyrrol-3-yl]-propionamide]
< 5	Cc1ccc(CN2CC=C(CCC(=O)NO)C2=O)cc1 [Example 8, N-hydroxy-3-[1-(4-methyl-benzyl)-2-oxo-2,5-dihydro-1H-pyrrol-3-yl]-propionamide]
< 5	COc1ccccc1CN1CC=C(CCC(=O)NO)C1=O [Example 9, N-hydroxy-3-[1-(2-methoxy-benzyl)-2-oxo-2,5-dihydro-1H-pyrrol-3-yl]-propionamide]
< 1	COc1cccc(CN2CC=C(CCC(=O)NO)C2=O)c1 [Example 10, N-hydroxy-3-[1-(3-methoxy-benzyl)-2-oxo-2,5-dihydro-1H-pyrrol-3-yl]-propionamide]
< 1	O=C(CCC1=CCN(Cc2ccc(Br)cc2)C1=O)NO [Example 12, 3-[1-(4-bromo-benzyl)-2-oxo-2,5-dihydro-1H-pyrrol-3-yl]-N-hydroxy-propionamide]
< 10	O=C(CCC1=CCN(Cc2ccc(OCc3ccccc3)cc2)C1=O)NO [Example 14, 3-[1-(4-benzyloxy-benzyl)-2-oxo-2,5-dihydro-1H-pyrrol-3-yl]-N-hydroxy-propionamide]
> 10	O=C(O)CCC1=CCN(Cc2ccccc2)C1=O [Example 17, 3-(1-benzyl-2-oxo-2,5-dihydro-1H-pyrrol-3-yl)-propionic acid]
> 10	O=C(CC1=CCN(Cc2ccccc2)C1=O)NO [Example 20, 2-(1-benzyl-2-oxo-2,5-dihydro-1H-pyrrol-3-yl)-N-hydroxy-acetamide]
> 10	COc1ccc(CN2CC=C(CC(=O)NO)C2=O)c(OC)c1 [Example 21, 2-[1-(2,4-dimethoxy-benzyl)-2-oxo-2,5-dihydro-1H-pyrrol-3-yl]-N-hydroxy-acetamide]
> 10	O=C(CC1=CCN(CCCCc2ccccc2)C1=O)NO [Example 23, N-hydroxy-2-[2-oxo-1-(4-phenyl-butyl)-2,5-dihydro-1H-pyrrol-3-yl]-acetamide]
> 10	O=C(CC1CCN(Cc2ccccc2)C1=O)NO (centres unmarked) [Example 25, 2-(1-benzyl-2-oxo-pyrrolidin-3-yl)-N-hydroxy-acetamide]
> 10	O=C(CC1CCN(CCc2ccccc2)C1=O)NO (centres unmarked) [Example 27, N-hydroxy-2-(2-oxo-1-phenethyl-pyrrolidin-3-yl)-acetamide]
< 5	O=C(CCC1=CCN(CCc2cccc(F)c2)C1=O)NO [Example 29, 3-{1-[2-(3-fluoro-phenyl)-ethyl]-2-oxo-2,5-dihydro-1H-pyrrol-3-yl}-N-hydroxy-propionamide]
< 5	O=C(CCC1=CCN(CCc2ccccc2[N+](=O)[O-])C1=O)NO [Example 31, N-hydroxy-3-{1-[2-(2-nitro-phenyl)-ethyl]-2-oxo-2,5-dihydro-1H-pyrrol-3-yl}-propionamide]
< 5	O=C(CCC1=CCN(CCc2ccc([N+](=O)[O-])cc2)C1=O)NO [Example 33, N-hydroxy-3-{1-[2-(4-nitro-phenyl)-ethyl]-2-oxo-2,5-dihydro-1H-pyrrol-3-yl}-propionamide]
< 5	O=C(CCC1=CCN(CCc2ccccc2Br)C1=O)NO [Example 34, 3-{1-[2-(2-bromo-phenyl)-ethyl]-2-oxo-2,5-dihydro-1H-pyrrol-3-yl}-N-hydroxy-propionamide]
< 5	Cc1ccc(CCN2CC=C(CCC(=O)NO)C2=O)cc1 [Example 39, N-hydroxy-3-[2-oxo-1-(2-p-tolyl-ethyl)-2,5-dihydro-1H-pyrrol-3-yl]-propionamide]
< 5	Cc1ccc(CCCN2CC=C(CCC(=O)NO)C2=O)cc1 [Example 40, N-hydroxy-3-[2-oxo-1-(3-p-tolyl-propyl)-2,5-dihydro-1H-pyrrol-3-yl]-propionamide]
< 1	Cc1cccc(CCCN2CC=C(CCC(=O)NO)C2=O)c1 [Example 42, N-hydroxy-3-[2-oxo-1-(3-m-tolyl-propyl)-2,5-dihydro-1H-pyrrol-3-yl]-propionamide]
< 10	O=C(CCC1=CCN(CCCc2ccc(Cl)cc2)C1=O)NO [Example 45, 3-{1-[3-(4-chloro-phenyl)-propyl]-2-oxo-2,5-dihydro-1H-pyrrol-3-yl]-N-hydroxy-propionamide]

From patent publication US7723376B2, “2-oxo-heterocyclic compounds and pharmaceutical compositions” (Korea Research Institute of Bioscience and Biotechnology, priority 2003, dated 2010)
